Test results: ChEMBL document CHEMBL1156882, “5-OMe-UDP is a potent and selective P2Y(6)-receptor agonist” (J Med Chem, 2010); call rule not given here
Blank lines part the entries; values can stand above or below the molecule they belong to.

Key:
Format in all cases: functional, cell-based
P2Y purinoceptor 2 [1] = biological target: T1, P2Y purinoceptor 2 (Homo sapiens, UniProt P41231); assay: Agonist activity at human P2Y2 receptor expressed in human 1321N1 cells assessed as calcium elevation by fura2/AM assay
T1 sequence (P41231 whole entry): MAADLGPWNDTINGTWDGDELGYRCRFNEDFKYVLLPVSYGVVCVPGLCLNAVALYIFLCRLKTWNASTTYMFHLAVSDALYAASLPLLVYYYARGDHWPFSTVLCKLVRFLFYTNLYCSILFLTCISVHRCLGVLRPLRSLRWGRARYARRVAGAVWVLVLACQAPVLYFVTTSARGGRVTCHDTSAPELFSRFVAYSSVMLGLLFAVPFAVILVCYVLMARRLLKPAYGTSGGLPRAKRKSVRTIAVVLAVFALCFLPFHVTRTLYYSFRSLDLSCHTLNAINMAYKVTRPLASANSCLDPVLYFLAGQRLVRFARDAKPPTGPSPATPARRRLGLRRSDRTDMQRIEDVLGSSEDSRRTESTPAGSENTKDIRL

P2Y purinoceptor 4 [2] = biological target: T2, P2Y purinoceptor 4 (Homo sapiens, UniProt P51582); assay: Agonist activity at human P2Y4 receptor expressed in human 1321N1 cells assessed as concentration required to 50% maximal response of compound 3 at 10 uM by fura2/AM assay
T2 sequence (P51582 whole entry): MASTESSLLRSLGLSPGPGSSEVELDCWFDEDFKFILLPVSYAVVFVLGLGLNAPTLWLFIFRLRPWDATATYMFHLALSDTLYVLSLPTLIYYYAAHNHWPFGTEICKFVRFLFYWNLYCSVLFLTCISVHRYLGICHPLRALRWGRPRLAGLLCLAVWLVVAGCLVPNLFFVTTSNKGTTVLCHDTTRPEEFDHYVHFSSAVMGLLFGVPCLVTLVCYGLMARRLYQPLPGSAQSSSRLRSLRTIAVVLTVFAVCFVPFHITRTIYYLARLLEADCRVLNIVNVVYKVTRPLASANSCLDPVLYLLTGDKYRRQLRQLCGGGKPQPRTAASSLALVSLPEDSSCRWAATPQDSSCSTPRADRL

P2Y purinoceptor 6 [3] = biological target: T3, P2Y purinoceptor 6 (Homo sapiens, UniProt Q15077); assay: Agonist activity at human P2Y6 receptor expressed in human 1321N1 cells assessed as calcium elevation at 10 uM by fura2/AM assay
T3 sequence (Q15077 whole entry): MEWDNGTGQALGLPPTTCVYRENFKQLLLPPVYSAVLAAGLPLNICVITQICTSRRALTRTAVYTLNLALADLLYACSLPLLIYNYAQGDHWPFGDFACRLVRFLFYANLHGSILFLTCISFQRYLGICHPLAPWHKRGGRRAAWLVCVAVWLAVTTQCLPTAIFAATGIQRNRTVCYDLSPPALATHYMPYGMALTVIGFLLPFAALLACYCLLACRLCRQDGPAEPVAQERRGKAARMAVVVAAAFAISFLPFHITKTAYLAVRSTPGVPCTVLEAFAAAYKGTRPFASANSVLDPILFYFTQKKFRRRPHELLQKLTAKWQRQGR

P2Y purinoceptor 4 [4] = biological target: T2, P2Y purinoceptor 4; assay: Agonist activity at human P2Y4 receptor expressed in human 1321N1 cells assessed as calcium elevation by fura2/AM assay
P2Y purinoceptor 6 [5] = biological target: T3, P2Y purinoceptor 6; assay: Agonist activity at human P2Y6 receptor expressed in human 1321N1 cells assessed as calcium elevation by fura2/AM assay
P2Y purinoceptor 2 [6] = biological target: T1, P2Y purinoceptor 2; assay: Agonist activity at human P2Y2 receptor expressed in human 1321N1 cells assessed as concentration required to 50% maximal response of compound 3 at 10 uM by fura2/AM assay
P2Y purinoceptor 6 [7] = biological target: T3, P2Y purinoceptor 6; assay: Agonist activity at human P2Y6 receptor expressed in human 1321N1 cells assessed as concentration required to 50% maximal response of compound 3 at 10 uM by fura2/AM assay
P2Y purinoceptor 4 [8] = biological target: T2, P2Y purinoceptor 4; assay: Agonist activity at human P2Y4 receptor expressed in human 1321N1 cells assessed as calcium elevation at 10 uM by fura2/AM assay
P2Y purinoceptor 2 [9] = biological target: T1, P2Y purinoceptor 2; assay: Agonist activity at human P2Y2 receptor expressed in human 1321N1 cells assessed as calcium elevation at 10 uM by fura2/AM assay
P2Y purinoceptor 2 [10] = biological target: P2Y purinoceptor 2 (Mus musculus, UniProt P35383); assay: Agonist activity at mouse P2Y2 receptor expressed in human 1321N1 cells assessed as calcium elevation by fura2/AM assay
Sequence of P2Y purinoceptor 2 (Mus musculus, UniProt P35383) (P35383 whole entry): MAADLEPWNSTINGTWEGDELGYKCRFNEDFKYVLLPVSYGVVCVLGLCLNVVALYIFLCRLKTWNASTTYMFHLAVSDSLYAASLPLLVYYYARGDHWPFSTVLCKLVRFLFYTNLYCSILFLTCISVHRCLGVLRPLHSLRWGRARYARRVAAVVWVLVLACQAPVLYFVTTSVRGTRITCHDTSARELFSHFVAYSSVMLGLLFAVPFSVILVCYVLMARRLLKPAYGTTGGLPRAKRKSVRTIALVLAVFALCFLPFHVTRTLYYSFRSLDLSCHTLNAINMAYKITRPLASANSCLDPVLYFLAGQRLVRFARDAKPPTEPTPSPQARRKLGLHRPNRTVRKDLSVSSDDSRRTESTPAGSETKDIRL

Compound: O=c1ccn([C@@H]2O[C@H](COP(=O)(O)OP(=O)(O)OP(=O)(O)OP(=O)(O)OC[C@H]3O[C@@H](n4ccc(=O)[nH]c4=O)[C@H](O)[C@@H]3O)C3OC(Cc4ccccc4)OC32)c(=O)[nH]1 (stereo partly drawn)
- EC50 (P2Y purinoceptor 6 [5]; read-out: EC50): 140 nM

Compound: O=c1cc(Sc2ccccc2)n([C@@H]2O[C@H](COP(=O)(O)OP(=O)(O)OP(=O)(O)O)[C@@H](O)[C@H]2O)c(=O)[nH]1
- EC50 (P2Y purinoceptor 2 [1]; 1321-n1): Not Active
- EC50 (P2Y purinoceptor 4 [4]; 1321-n1): Not Active
- EC50 (P2Y purinoceptor 6 [5]; 1321-n1): Not Active

Compound: COc1cc(=O)[nH]c(=O)n1[C@@H]1O[C@H](COP(=O)(O)OP(=O)(O)OP(=O)(O)O)[C@@H](O)[C@H]1O
- EC50 (P2Y purinoceptor 2 [1]; read-out: EC50): 3000 nM
- EC50 (P2Y purinoceptor 4 [4]; 1321-n1): Not Active
- EC50 (P2Y purinoceptor 6 [5]; 1321-n1): Not Active

Compound: O=c1[nH]c(=O)n([C@@H]2O[C@H](COP(=O)(O)OP(=O)(O)S)[C@@H](O)[C@H]2O)cc1Br (stereo partly drawn)
- EC50 (P2Y purinoceptor 6 [5]; read-out: EC50): 47 nM

Compound: O=c1ccn([C@]23C[C@H]2[C@H](COP(=O)(O)OP(=O)(O)O)[C@@H](O)[C@H]3O)c(=O)[nH]1
- EC50 (P2Y purinoceptor 6 [5]; read-out: EC50): 230 nM

Compound: Nc1ccn([C@H]2C[C@H](O)[C@@H](COP(=O)(O)OP(=O)(O)OP(=O)(O)OP(=O)(O)OC[C@H]3O[C@@H](n4ccc(=O)[nH]c4=O)[C@H](O)[C@@H]3O)O2)c(=O)n1 [DENUFOSOL]
- EC50 (P2Y purinoceptor 2 [1]; read-out: EC50): 220 nM

Compound: O=c1ccn([C@@H]2O[C@H](COP(=O)(O)OP(=O)(O)OP(=O)(O)O)[C@@H](O)[C@H]2O)c(=O)[nH]1 [URIDINE TRIPHOSPHATE]
- EC50 (P2Y purinoceptor 2 [1]; read-out: EC50): 100 nM
- EC50 (P2Y purinoceptor 4 [4]; read-out: EC50): 500 nM

Next, values leading:

- EC50 (P2Y purinoceptor 2 [1]; read-out: EC50): 6000 nM
- EC50 (P2Y purinoceptor 4 [2]): 600 nM
- EC50 (P2Y purinoceptor 6 [3]): Active
Compound: O=c1[nH]c(=O)n([C@@H]2O[C@H](COP(=O)(O)OP(=O)(O)OP(=O)(O)O)[C@@H](O)[C@H]2O)cc1F

- EC50 (P2Y purinoceptor 2 [1]; read-out: EC50): 2060 nM
- EC50 (P2Y purinoceptor 4 [4]; read-out: EC50): 10000 nM
- EC50 (P2Y purinoceptor 6 [5]; read-out: EC50): 800 nM
Compound: O=c1[nH]c(=O)n([C@@H]2O[C@H](COP(=O)(O)OP(=O)(O)OP(=O)(O)O)[C@@H](O)[C@H]2O)cc1Br

- EC50 (P2Y purinoceptor 6 [5]; read-out: EC50): 13 nM
Compound: O=c1[nH]c(=O)n([C@@H]2O[C@H](COP(=O)(O)OP(=O)(O)O)[C@@H](O)[C@H]2O)cc1I

- EC50 (P2Y purinoceptor 2 [1]; 1321-n1): Not Active
- EC50 (P2Y purinoceptor 4 [4]; read-out: EC50): ≥ 20000 nM
- EC50 (P2Y purinoceptor 6 [5]; read-out: EC50): 80 nM
Compound: COc1cn([C@@H]2O[C@H](COP(=O)(O)OP(=O)(O)O)[C@@H](O)[C@H]2O)c(=O)[nH]c1=O

- EC50 (P2Y purinoceptor 2 [6]): 2000 nM
- EC50 (P2Y purinoceptor 4 [2]): 3500 nM
- EC50 (P2Y purinoceptor 6 [7]): 10000 nM
Compound: O=c1[nH]c(=O)n([C@@H]2O[C@H](COP(=O)(O)OP(=O)(O)O)[C@@H](O)[C@H]2O)cc1F

- EC50 (P2Y purinoceptor 2 [1]; read-out: EC50): 2000 nM
- EC50 (P2Y purinoceptor 6 [5]; read-out: EC50): 900 nM
- EC50 (P2Y purinoceptor 4 [8]): Active
Compound: COc1cn([C@@H]2O[C@H](COP(=O)(O)OP(=O)(O)OP(=O)(O)O)[C@@H](O)[C@H]2O)c(=O)[nH]c1=O

- EC50 (P2Y purinoceptor 2 [9]): Active
- EC50 (P2Y purinoceptor 4 [4]; 1321-n1): Not Active
- EC50 (P2Y purinoceptor 6 [5]; 1321-n1): Not Active
Compound: CSc1cc(=O)[nH]c(=O)n1[C@@H]1O[C@H](COP(=O)(O)OP(=O)(O)OP(=O)(O)O)[C@@H](O)[C@H]1O

- EC50 (P2Y purinoceptor 2 [10]): 99000 nM
Compound: CCc1cn([C@@H]2O[C@H](COP(=O)(O)OP(=O)(O)OP(=O)(O)O)[C@@H](O)[C@H]2O)c(=O)[nH]c1=O

- EC50 (P2Y purinoceptor 6 [5]; read-out: EC50): 140 nM
Compound: O=c1ccn([C@@H]2O[C@H](COP(=O)(O)OP(=O)(O)O)[C@@H](O)[C@H]2O)c(=O)[nH]1 [URIDINE_DIPHOSPHATE]
